The series is described as follows: photoluminescence quantum yield (fraction); solvent given as SMILES.
[1] abbreviates: in O=P(c1ccccc1)(c1ccccc1)c1ccccc1Oc1ccccc1P(=O)(c1ccccc1)c1ccccc1.

Several values for one entry are separate records, joined by “and”; a condition that tells them apart may be missing. Equal entries are not always repeated.

Turning to `N#Cc1ccc(C[C@H](N)C(=O)O)cc1`, the photoluminescence quantum yield was determined as 0.031 (in C1CCOC1); 0.026 (in CC#N); 0.071 (in CC(C)O); 0.1 (in CC(O)CO); 0.079 (in CCCCO); 0.074 (in CCCO). The photoluminescence quantum yield turned out to be 0.034 (in CCO); 0.076 (in CO); 0.083 (in NC=O); 0.11 (in O); 0.17 (in O=CO).

Take `COc1ccc(-c2c3ccc([nH]3)c3nc(c(-c4ccc(C#N)cc4)c4ccc([nH]4)c4ccc([nH]4)c(-c4ccc(OC)cc4)c4ccc2o4)C=C3)cc1`: the photoluminescence quantum yield (in C1CCOC1) came out at 0.072, the photoluminescence quantum yield (in Cc1ccccc1) is 0.141 and the photoluminescence quantum yield (in c1ccccc1) came to 0.147.

Under “in ClCCl”, `Cc1ccc2nc3cc4c5c(cccc5c3nc2c1)C(c1ccccc1)=C(c1ccccc1)O4` gave a photoluminescence quantum yield of 0.37.

With `CCn1c2ccsc2c2c3nsnc3c3c4sccc4n(CC)c3c21`, the photoluminescence quantum yield runs as follows: (in C1CCOC1) 0.68; (in CCOC(C)=O) 0.63; (in CN(C)C=O) 0.42; (in Cc1ccccc1) 0.73; (in ClCCl) 0.33.

The compound `CCCCCCc1cc(B(c2c(C)cc(C)cc2C)c2c(C)cc(C)cc2C)c(-c2sc(CCCCCC)cc2P(=O)(c2ccccc2)c2ccccc2)s1` returned a photoluminescence quantum yield (in CO) of 0.17.

For the compound `COc1cc(C(=O)O)cc(OC)c1O`, under “in O”, the photoluminescence quantum yield is 0.009.

For the setting “in C1CCOC1”, `Cc1ccc(-c2ccc(-c3ccc(-c4ccc(C)cc4)cc3/C(=C(/c3ccccc3)c3cc(-c4ccc(C)cc4)ccc3-c3ccc(-c4ccc(C)cc4)cc3)c3ccccc3)cc2)cc1` had a photoluminescence quantum yield of 0.3.

For `FC(F)(F)C(F)(F)C(F)(F)C(F)(F)C(F)(F)C(F)(F)C(F)(F)C(F)(F)CCOc1nnc(Cl)nn1`, the photoluminescence quantum yield (in ClCCl) is 0.44 and the photoluminescence quantum yield (in OCC(F)(F)F) worked out at 0.28.

In turn, `CC1=N/C(=C\c2cc(C#N)cc(N(C)C)c2)C(=O)N1C` had a photoluminescence quantum yield (in C1CCOC1) of 0.14, a photoluminescence quantum yield (in CC#N) of 0.05 and a photoluminescence quantum yield (in CCCCCC) of 0.45.

For the compound `Cc1ccc2c(c1)c1cc(C)ccc1n2-c1c(-n2c3ccccc3c3ccccc32)cc(-c2nc(-c3ccccc3)nc(-c3ccccc3)n2)cc1-n1c2ccccc2c2ccccc21`, under setting [1], the photoluminescence quantum yield was determined as 0.98.

Take `OCc1ccc2c3cccc4cccc(c5cccc1c52)c43`: under “in CCO”, the photoluminescence quantum yield was 0.95.

Consider `COc1ccc(-c2csc(-c3ccncc3)n2)cc1`, for which the photoluminescence quantum yield is, setting by setting: (in CC#N) 0.002; (in CCO) 0.22; (in CN(C)C=O) 0.158; (in CS(C)=O) 0.163; (in Cc1ccccc1) 0.037; (in ClCCl) 0.089.

`CCn1c2ccccc2c2cc(/C=C/c3cccc(/C=C/c4ccc5c(c4)c4ccccc4n5CC)[n+]3CCCS(=O)(=O)[O-])ccc21` displayed a photoluminescence quantum yield (in C1CCOC1) of 0.1, a photoluminescence quantum yield (in CC#N) of 0.03, a photoluminescence quantum yield (in CC(C)=O) of 0.03 and a photoluminescence quantum yield (in Cc1ccccc1) of 0.08.

The compound `O=C1NC(=O)c2ccc3c4ccc5c6c(ccc(c7ccc1c2c73)c64)C(=O)N(c1ccc(O)cc1)C5=O` yielded a photoluminescence quantum yield (in CN(C)C=O) of 0.15.

Compound `CCCCCCN1C(=O)c2cccc3c(-c4ccc(Cl)s4)ccc(c23)C1=O` had a photoluminescence quantum yield (in ClC(Cl)Cl) of 0.18.

`CCN(CC)c1ccc2c(c1)oc(=O)c1c(C)nc3c(c(-c4ccccc4)nn3-c3ccccc3)c12` registered a photoluminescence quantum yield (in C1CCCCC1) of 0.635; a photoluminescence quantum yield (in CCOC(C)=O) of 0.634; a photoluminescence quantum yield (in CN(C)C=O) of 0.51; a photoluminescence quantum yield (in CO) of 0.396; a photoluminescence quantum yield (in ClCCl) of 0.653.

`Cc1ccc(-c2nc(-c3ccc(-c4nc(-c5ccc(C)cc5)c(-c5ccc(C)cc5)[nH]4)cc3)[nH]c2-c2ccc(C)cc2)cc1`: the photoluminescence quantum yield (in CS(C)=O) amounted to 0.96.

In the case of `CC1(C)c2ccccc2N(c2ccc(C(=C(C#N)C#N)c3ccc(N4c5ccccc5C(C)(C)c5ccccc54)cc3)cc2)c2ccccc21`, the photoluminescence quantum yield (in Cc1ccccc1) is 0.0171.

For the compound `Cn1c(=O)cc(C(=O)c2ccccc2)c2sc(-c3ccc(OC(F)(F)F)cc3)cc21`, the photoluminescence quantum yield reads like this: (in CC#N) 0.65; (in ClCCl) 0.85.

In turn, `O=c1c2cc(-n3c4ccccc4c4ccccc43)ccc2sc2ccc(-n3c4ccccc4c4ccccc43)cc12` displayed a photoluminescence quantum yield under setting [1] of 0.412.

The compound `c1ccc(-c2nc(-c3ccccc3)nc(-c3cc(-n4c5ccccc5c5ncccc54)c(-n4c5ccccc5c5ccccc54)c(-n4c5ccccc5c5ncccc54)c3)n2)cc1` gave a photoluminescence quantum yield under setting [1] of 0.85.

The compound `O=C1OC(=O)C2=C1[Se][C@]13C2=C[C@H](c2ccccc21)c1ccccc13` gave a photoluminescence quantum yield (in ClCCl) of 0.62.

In the case of `CN(CCO)c1ccc(/N=N/c2ccc([N+](=O)[O-])cc2)cc1`, the photoluminescence quantum yield worked out at 0.0028 (in CO), 0.0011 (in OCC(O)CO), 0.0014 (in OCCO) and 4.3e-05 (in Oc1ccccc1).

On to `CC[Si](CC)(CC)Oc1cccc(O[Si](CC)(CC)CC)c1-c1c2ccccc2c(-c2c(O[Si](CC)(CC)CC)cccc2O[Si](CC)(CC)CC)c2ccccc12`, for which the photoluminescence quantum yield (in C1CCCCC1) came out at 0.96.

As to `CCN(CC)c1ccc2cc(C#N)/c(=N\C(=O)c3ccc(F)cc3)oc2c1`, the photoluminescence quantum yield (in CCO) was determined as 0.3 and the photoluminescence quantum yield (in ClCCl) is 0.83.

In turn, `CC1=C(/C=C/c2ccccc2)C(C)=[N+]2C1=C(c1ccccc1)c1c(C)c(/C=C/c3ccccc3)c(C)n1[B-]2(F)F` registered a photoluminescence quantum yield (in ClC(Cl)Cl) of 0.01.

For `c1ccc(-c2nc3sc4ccccc4c3s2)cc1`, for the setting “in CS(C)=O”, the photoluminescence quantum yield came to 0.89.

`CN(C)c1ccc(/C=C/c2cnc(C#Cc3ccc(C#N)cc3)o2)cc1` gave a photoluminescence quantum yield (in ClCCl) of 0.24.

The compound `C=Cc1cc2cc3c(cc2oc1=O)OCO3` displayed a photoluminescence quantum yield (in CC#N) of 0.65.

The compound `Cc1cc2c3ccccc3oc2c2[nH]c3ccccc3c12` yielded a photoluminescence quantum yield (in ClCCl) of 0.444.

`N#Cc1c(-n2c3ccccc3c3ccccc32)c(C#N)c(-n2c3ccccc3c3ccccc32)c(-n2c3ccccc3c3ccccc32)c1-n1c2ccccc2c2ccccc21`: the photoluminescence quantum yield is, setting by setting: (in Cc1ccccc1) 0.938 and 0.88; (in c1ccc2c(c1)c1ccccc1n2-c1ccc(-c2ccc(-n3c4ccccc4c4ccccc43)cc2)cc1) 0.83.

The compound `CCN(CC)c1ccc(-c2nc(Oc3ccc(-c4nc5ccccc5[nH]4)cc3)nc(Oc3ccc(-c4nc5ccccc5[nH]4)cc3)n2)cc1` showed a photoluminescence quantum yield (in CN(C)C=O) of 0.197.

On to `c1ccc(-c2ccc(-c3cc(-c4ccc(-c5ccccc5)cc4)cc(-c4ccc(-c5ccccc5)cc4)c3)cc2)cc1`, for which the photoluminescence quantum yield (in C1COCCO1) came to 0.27.

Compound `Cc1c(COC(=O)Cc2cccc3ccccc23)n2c(OCC(=O)Cc3cccc4ccccc34)c(C)c(=O)n2c1=O` returned a photoluminescence quantum yield (in CCO) of 0.84.

For `CCCCC(CC)Cn1c2cc(C#N)ccc2c2ccc(C#N)cc21` (configuration not stated), under “in ClCCl”, the photoluminescence quantum yield turned out to be 0.3.

For the compound `COc1ccc(N(c2ccc(C=C(c3ccccc3)c3ccccc3)cc2)c2ccc(OC)cc2)cc1`, under “in Cc1ccccc1”, the photoluminescence quantum yield turned out to be 0.01.

In the case of `CCCCN1C(=S)c2cccc3cccc(c23)C1=S`, for the setting “in Cc1ccccc1”, the photoluminescence quantum yield was found to be 0.01.

Regarding `COc1ccc(-c2nc(-c3ccc(C)cc3)c3ccccn23)cc1`, under “in ClC(Cl)Cl”, the photoluminescence quantum yield was determined as 0.13.

As to `COc1cc(OC)cc(C2=C3C(C)=C(I)C(C)=[N+]3[B-](F)(F)n3c(/C=C/c4ccsc4)c(I)c(C)c32)c1`, the photoluminescence quantum yield is 0.3 (in C1CCOC1), 0.15 (in CS(C)=O) and 0.4 (in ClCCl).

For the compound `CN(C)c1ccc(/C=C/C(=O)O)cc1`, the photoluminescence quantum yield is, setting by setting: (in C1CCOC1) 0.0134; (in CC#N) 0.0205; (in CCCCO) 0.0071; (in O) 0.002; (in c1ccccc1) 0.0112.

As to `CCN(CC)c1ccc2c(c1)oc(=O)c1c(=O)oc3cc(Br)ccc3c12`, the photoluminescence quantum yield reads like this: (in CS(C)=O) 0.25; (in ClCCl) 0.9.

Turning to `COC(=O)c1c(C(=O)OC)c2ccc(C)nn2c1C`, the photoluminescence quantum yield (in CCCCCC) amounted to 0.348.

Consider `F[B-]1(F)n2c(nc3c4ccccc4c4ccccc4c32)-c2ccc3ccccc3[n+]21`, for which, under “in ClCCl”, the photoluminescence quantum yield came out at 0.9.

As to `Brc1c(Br)c2ccc3c(Br)c(Br)c4ccc5ccc1c1c5c4c3c21`, the photoluminescence quantum yield (in C1CCCCC1) was determined as 0.0012.

Regarding `COc1ccc2c(c1)[nH]c1c3[nH]c4cc(OC)ccc4c3c3nsnc3c21`, the photoluminescence quantum yield reads like this: (in CN(C)C=O) 0.47; (in Cc1ccccc1) 0.5; (in ClCCl) 0.5.

Consider `COc1ccc(-c2csc(/C(C#N)=C/c3ccccc3Cl)n2)cc1`, for which, under “in CC#N”, the photoluminescence quantum yield amounted to 0.062.

With `COc1ccc2cc(-c3cc4ccc(OC)cc4oc3=O)oc2c1`, the photoluminescence quantum yield (in CS(C)=O) was 0.75.

On to `CCCCc1cc(CCCC)c2ccc3c(CCCC)cc(CCCC)c4ccc1c2c43`, for which the photoluminescence quantum yield runs as follows: (in CCCCCC) 0.55; (in CO) 0.67; (in ClCCl) 0.61.

The compound `O=c1cc2c(Br)c(O)c3cccc4ccc(o1)c2c43` had a photoluminescence quantum yield (in CC1CCCO1) of 0.15.

Turning to `CC(C)(C)c1ccc(-c2c3cccc4c(-c5ccccc5)cc5c(-c6ccc(C(C)(C)C)cc6)c6cccc7c(-c8ccccc8)cc2c(c76)c5c43)cc1`, the photoluminescence quantum yield (in ClCCl) was 0.26.

As for `Cc1ccc2c(c1)c1cc(C)ccc1n2-c1cccc(-n2c3ccc(C)cc3c3cc(C)ccc32)c1C#N`, the photoluminescence quantum yield reads like this: (in Cc1ccccc1) 0.34; under setting [1], 0.66.

Under “in Cc1ccccc1”, `CC(C)(C)c1ccc(N2c3ccc(C(C)(C)C)cc3B3c4cc(C(C)(C)C)ccc4N(c4ccc(C(C)(C)C)cc4)c4cc(-n5c6ccc(C(C)(C)C)cc6c6cc(C(C)(C)C)ccc65)cc2c43)cc1` displayed a photoluminescence quantum yield of 0.975.

With `CC1(C)CC(/C=C/c2ccc(N3CCOCCOCCOCCOCC3)cc2)=CC(=C(C#N)C#N)C1`, the photoluminescence quantum yield (in CCO) was 0.111.
